{"source": "paper PMC3196298", "about": "(Bioorganic & medicinal chemistry, 2011)", "key": {"BoNT/A induced paralysis": {"tested_on": "BoNT/A induced paralysis", "conditions": "cited from earlier work"}, "[1]": {"conditions": "in vivo; cited from earlier work"}, "AChE [2]": {"tested_on": "AChE", "conditions": "cited from earlier work"}, "[3]": {"target": "AChE purified from Electrophorus electricus (Electric eel) (Electrophorus electricus, UniProt O42275)", "sequence (O42275 24-633)": "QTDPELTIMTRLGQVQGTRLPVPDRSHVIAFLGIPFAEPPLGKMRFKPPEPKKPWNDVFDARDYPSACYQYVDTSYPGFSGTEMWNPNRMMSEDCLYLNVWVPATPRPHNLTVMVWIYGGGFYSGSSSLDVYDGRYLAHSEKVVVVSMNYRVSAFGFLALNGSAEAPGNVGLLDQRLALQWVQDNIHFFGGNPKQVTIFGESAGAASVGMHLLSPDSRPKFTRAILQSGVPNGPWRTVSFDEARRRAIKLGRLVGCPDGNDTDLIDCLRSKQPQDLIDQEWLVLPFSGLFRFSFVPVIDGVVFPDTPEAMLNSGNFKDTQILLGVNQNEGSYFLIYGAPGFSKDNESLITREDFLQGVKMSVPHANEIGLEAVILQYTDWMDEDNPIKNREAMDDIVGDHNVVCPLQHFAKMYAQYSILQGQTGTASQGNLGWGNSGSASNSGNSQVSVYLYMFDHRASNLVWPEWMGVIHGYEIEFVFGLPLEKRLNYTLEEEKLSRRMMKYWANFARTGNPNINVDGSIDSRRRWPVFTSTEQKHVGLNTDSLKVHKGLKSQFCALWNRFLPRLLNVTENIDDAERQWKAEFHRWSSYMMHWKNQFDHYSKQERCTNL", "assay": "biochemical", "assay_type": "biochemical"}, "BChE": {"target": "BChE (Equus caballus, UniProt P81908)", "sequence (P81908 whole entry)": "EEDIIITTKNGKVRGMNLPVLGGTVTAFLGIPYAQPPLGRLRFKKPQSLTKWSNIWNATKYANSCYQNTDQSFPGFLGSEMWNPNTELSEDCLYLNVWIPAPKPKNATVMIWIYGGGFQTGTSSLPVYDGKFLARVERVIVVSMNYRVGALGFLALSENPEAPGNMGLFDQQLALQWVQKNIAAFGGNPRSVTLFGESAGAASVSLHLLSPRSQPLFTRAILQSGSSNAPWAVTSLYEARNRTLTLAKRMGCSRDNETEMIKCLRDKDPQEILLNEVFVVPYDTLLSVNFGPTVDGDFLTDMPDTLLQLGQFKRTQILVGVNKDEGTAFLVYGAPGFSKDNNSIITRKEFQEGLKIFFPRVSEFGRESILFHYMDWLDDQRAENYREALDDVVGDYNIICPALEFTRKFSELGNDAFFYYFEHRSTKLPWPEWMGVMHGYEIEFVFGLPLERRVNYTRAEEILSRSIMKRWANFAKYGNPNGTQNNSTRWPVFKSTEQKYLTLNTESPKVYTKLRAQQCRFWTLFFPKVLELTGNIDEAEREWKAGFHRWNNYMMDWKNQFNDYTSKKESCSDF", "assay_type": "biochemical, equine"}, "cholinergic esterases": {"tested_on": "cholinergic esterases", "assay_type": "biochemical"}, "AChE [4]": {"target": "AChE (Electrophorus electricus, UniProt O42275)", "sequence (O42275 24-633)": "as the sequence (O42275 24-633) above", "assay_type": "biochemical"}}, "data": [{"smiles": "Nc1cncc(N)c1N", "note": "[3,4,5-triaminopyridine]", "values": [{"measurement": "paralysis reversal (in words)", "setting": "BoNT/A induced paralysis", "value": "paralysis reversal"}]}, {"smiles": "Nc1ccncc1N", "note": "[3,4-DAP, 3,4-diaminopyridine]", "values": [{"measurement": "toxicity issues at high doses (in words)", "setting": "[1]", "value": "seizures"}]}, {"smiles": "C#CC[n+]1ccc(N)c(N)c1", "note": "[3,4-diamino-1-(prop-2-ynl)pyridinium]", "values": [{"measurement": "paralysis reversal (in words)", "setting": "BoNT/A induced paralysis", "value": "paralysis reversal"}]}, {"smiles": "Nc1ccncc1", "note": "[4-AP, 4-aminopyridine]", "values": [{"measurement": "toxicity issues at high doses (in words)", "setting": "[1]", "value": "seizures"}]}, {"smiles": "CC(=O)OCC[N+](C)(C)C", "note": "[ACh, acetylcholine]", "values": [{"measurement": "Km", "setting": "AChE [2]", "value": 400, "unit": "µM"}]}, {"smiles": "CCC(=O)Oc1ccc(COC(=O)Nc2ccncc2N)cc1", "note": "[Compound 6b]", "values": [{"measurement": "binding to AChE more tightly than Km for ACh", "setting": "[3]", "value": 100, "unit": "fold"}, {"measurement": "selectivity of AChE over BChE (in words)", "setting": "[3]", "value": "moderate selectivity"}, {"measurement": "apparent kcat relative to natural substrate BCh", "setting": "BChE", "value": "approximately 10^−4"}]}, {"smiles": "CC(C)C(=O)Oc1ccc(COC(=O)Nc2ccncc2N)cc1", "note": "[Compound 6d]", "values": [{"measurement": "binding to AChE more tightly than Km for ACh", "setting": "[3]", "value": 100, "unit": "fold"}, {"measurement": "selectivity of AChE over BChE (in words)", "setting": "[3]", "value": "moderate selectivity"}, {"measurement": "apparent kcat relative to natural substrate BCh", "setting": "BChE", "value": "approximately 10^−4"}]}, {"smiles": "COC(=O)Nc1cnccc1N", "note": "[Compound 16]", "values": [{"measurement": "enzymatic generation of 3,4-DAP (in words)", "setting": "cholinergic esterases", "value": "failed as pseudosubstrates to generate 3,4-DAP enzymatically"}]}, {"smiles": "COC(=O)Nc1ccncc1NC(=O)OC", "note": "[Compound 17]", "values": [{"measurement": "enzymatic generation of 3,4-DAP (in words)", "setting": "cholinergic esterases", "value": "failed as pseudosubstrates to generate 3,4-DAP enzymatically"}]}, {"smiles": "COC(=O)Nc1ccncc1N", "note": "[Compound 19]", "values": [{"measurement": "enzymatic generation of 3,4-DAP (in words)", "setting": "cholinergic esterases", "value": "failed as pseudosubstrates to generate 3,4-DAP enzymatically"}]}, {"smiles": "CC(=O)Nc1ccncc1N", "note": "[Compound 21]", "values": [{"measurement": "release of 3,4-DAP upon incubation with AChE (in words)", "setting": "AChE [4]", "value": "did not undergo internal release"}, {"measurement": "kinetic mechanism of inhibition of AChE", "setting": "[3]", "value": "competitive inhibition"}]}, {"smiles": "CC(C)OC(=O)CCC(=O)Nc1ccncc1N", "note": "[Compound 32]", "values": [{"measurement": "release of 3,4-DAP upon incubation with AChE (in words)", "setting": "AChE [4]", "value": "negligible release of 3,4-DAP"}, {"measurement": "Ki", "setting": "[3]", "value": 3, "unit": "µM"}, {"measurement": "selectivity of AChE over BChE (in words)", "setting": "[3]", "value": "inhibited AChE selectively over BChE"}, {"measurement": "half-life in mouse sera", "value": 2.8, "unit": "h"}]}]}
